Results published in patent publication US10619182B2, “Method, device and system for testing drug sensitivity” (HITACHI, LTD., priority 2014, dated 2020).

Columns and labels:
Assay type in all cases: cell-based
[1] = system: Staphylococcus aureus (ATCC25923); assay: Antimicrobial susceptibility test using the ATP method (dead bacteria ATP / live bacteria ATP ratio); details: S. aureus, ABPC 0.25 μg/mL, LVFX 0.125 μg/mL, FIG. 12
Protocol: (§1) In this experiment, Escherichia coli (ATCC25922 strain; hereinafter, referred to as E. coli) and Staphylococcus aureus (ATCC25923; hereinafter, referred to as S. aureus) are used as the bacterial cell. An antimicrobial susceptibility test using the ATP method is carried out for both of these. As antibiotics, ampicillin and levofloxacin (hereinafter, referred to as LVFX) are used. First, the bacterial cells are cultured overnight on an LB agar medium, and the next day, a colony is suspended in a Mueller-Hinton (hereinafter, referred to as MH) medium, thereby preparing a bacterial suspension prepared in 0.5 McFarland. Next, the bacterial suspension diluted 500 times in the MH medium is distributed as much as each 50 μL to the plate to which the MH medium containing the antibiotic whose concentration is twice the final concentration is distributed in advance as much as each 50 μL. The static culture is carried out at 37° C. for a certain period of time, and the bacterial suspension is prepared. For the final concentration of the antibiotic, ABPC is set to 4 μg/mL and LVFX is set to 0.125 μg/mL in a case where E. coli is a measurement target. In a case where S. aureus is a measurement target, ABPC is set to 0.25 μg/mL and LVFX is set to 0.125 μg/mL. The bacterial cells are compared with the bacterial cells cultured in the MH medium having no antibiotic contained therein. The live bacteria ATP is prepared by mixing 2 μL of the ATP eliminating solution with 18 μL of the above-described bacteria culture liquid, and the mixture is left static at room temperature for 30 minutes. Thereafter, 20 μL of the ATP extracting reagent is mixed therewith, and the mixture is left static at room temperature for one minute so as to prepare the live bacteria ATP. The dead bacteria ATP is prepared by adding the bacteria culture liquid onto a filter (membrane pore size 0.22 μm). The filtrate obtained through filtering using centrifugation is used as the dead bacteria ATP. The luminescence reagent is added to the prepared live bacteria ATP or dead bacteria ATP, and is subjected to photon counting for one minute. The obtained luminescence amount (amount of luminescence (a.u.)) is used as an index of the ATP amount. According to the above-described experiment, a luminescence amount ratio between the dead ATP luminescence amount and the live ATP luminescence amount is obtained. FIGS. 11 and 12 illustrate a result obtained by calculating the luminescence amount ratio as an amount ratio between the live bacteria ATP and the dead bacteria ATP.

[2] = system: Escherichia coli (ATCC25922 strain); assay: as above; details: E. coli, ABPC 4 μg/mL, LVFX 0.125 μg/mL, FIG. 11
Protocol: as §1

E. coli = assay: Time-dependent change in live and dead bacteria ATP luminescence amount (Methods (1) to (4))
Source text: Next, a method for measuring ATP derived from the live bacteria and the dead bacteria will be described with reference to FIG. 2. A live bacteria ATP method in Method (1) is used in eliminating ATP5 outside a bacterial cell so as to measure ATP2000 included in the cell membrane of the live bacterium 2 and ATP3000 included in the cell membrane of the dead bacterium 3 having no damage to the cell membrane. A submerged ATP method in Method (2) is used in measuring the dead bacteria 4 having the damaged cell membrane and the free ATP5 in the culture liquid 1 while the bacterial cells of the live bacterium 2 and the dead bacteria 3 and 4 are included. The dead bacterium 4 serves as a measurement target, since a substrate and enzyme of enzyme luciferase reaction which are bioluminescent molecules (to be described later) enter the dead bacterium 4 from a damaged site. […]
Next, a result example obtained in such a way that E. coli as an example is processed according to Methods (1) to (4) so as to measure an ATP amount will be described with reference to FIGS. 4a and 4b. […] The luciferase oxidizes luciferin which serves as a substrate in the presence of ATP and Mg^2+ inside the bacteria, and a luminescence amount generated at that time is proportional to the ATP amount. Accordingly, bacteria growth is evaluated, based on a change in the luminescence amount.
In the present embodiment, the luminescence amount is represented by integration of a photon count value of 60 sec, and the unit is defined as the luminescence amount (amount of luminescence (a.u.)). As described above, the luminescence amount and the ATP amount are in a proportional relationship. In a case where the luminescence amount increases, it is determined that the ATP amount increases.
FIG. 4a illustrates a result obtained by culturing E. coli on the absence of antibiotics. […] If the results in FIGS. 4a and 4b are compared with each other, in FIG. 4a, according to the live bacteria ATP method in Method (1), the luminescence amount increases with the lapse of the culture time until four hours of the culture time. […]

CC1(C)S[C@@H]2[C@H](NC(=O)[C@H](N)c3ccccc3)C(=O)N2[C@H]1C(=O)O [ABPC, ampicillin]
time after start of antimicrobial susceptibility culture at which the effect can be determined (ratio dead bacteria ATP/live bacteria ATP = 1) [1]: approximately two and a half
ratio of the dead bacteria ATP amount/the live bacteria ATP amount as the culture time elapses ([1]; MH medium, 37° C.): increases
time after start of antimicrobial susceptibility culture at which the effect can be determined (ratio dead bacteria ATP/live bacteria ATP = 1) [2]: approximately three
ratio of the dead bacteria ATP amount/the live bacteria ATP amount as the culture time elapses ([2]; MH medium, 37° C.): increases
luminescence amount according to submerged ATP method (2) to total ATP method (4) (E. coli; E. coli cultured in the presence of 8 μg/mL ampicillin, FIG. 4b): increases or does not vary greatly
luminescence amount of the live bacteria ATP according to Method (1) (E. coli; E. coli cultured in the presence of 8 μg/mL ampicillin, after three hours of culture, FIG. 4b): decreases with the lapse of the culture time
action of the antibiotic on growth of live bacteria (E. coli; E. coli, 8 μg/mL ampicillin, during four hours of the culture time): stops the growth of the live bacteria so as to kill the bacteria with the lapse of time
